Results as given in article PMC5847527, “Identification of a novel 2-oxindole fluorinated derivative as in vivo antitumor agent for prostate cancer acting via AMPK activation” (Scientific Reports, 2018).

Columns and labels:
[1] = test system: PC-3, DU145 and LNCaP cells; assay: Cell viability by cell counting (Trypan blue); format: cell-based; conditions: 25 µM
Method: Figure 3 Comparison of the effect of 2-oxindole fluorinated derivatives on the proliferation of human prostate cancer cells. (A) Normal (PTN2 and RWPE-1) and cancer (PC3,DU145 and LNCaP) prostate cells were treated with different doses of the compounds for 24 hours and cell viability was monitored by MTT assay. […] (C) PC-3, DU145 and LNCaP cells were treated with 25 µM of compound 8c for different times. Values were normalized with the control and represent the mean ± SD of at least three independent experiments. *p < 0.05 and **p < 0.01 compared to control by the Student’s - test.
To confirm the antiproliferative effect of compound 8c, cell viability was evaluated by cell counting at different times in PC-3, DU145 and LNCaP cells.
Cell viability was determined by 3-(4,5-dimethylthiazol-2-yl)-2,5-diphenyltetrazolium bromide (MTT) (Sigma-Aldrich) method. […] The optical density in each well was evaluated by measurement of absorbance at 490 and 650 nm using a microplate reader (ELX 800 Bio-Tek Intruments, INC). IC50 values were calculated using GraphPad Prism vs 6.0 (GraphPad Software, Inc, La Jolla, CA, USA). Cell viability was also determined by counting viable and dead cells by Trypan blue staining. Trypan blue positive and negative cells were counted using a Countess^TM automated cell counter (Invitrogen, Carlsbad, CA, USA). […]

p53 = p53 and p-p53 level by Western blot in LNCaP cells; format: cell-based, human
Method: (§1) Figure 4 Cell Cycle analysis in 8c-treated prostate cancer cells. (A) PC-3 and LNCaP cells were treated with compound 8c for 24 hours and cell cycle analysis was analyzed by flow cytometry using Propidium Iodide (PI). Percentage of cells in subG0, G1, S, and G2/M phases is indicated in the histogram. (B) Levels of Cyclin D1, p-p53, p53, p21 and cleaved Caspase 3 (17 kDa fragment) were determined by Western blot. Upper panel, representative Western blot of two different experiments. β-tubulin (β-Tub) serves as a loading control. […]
(§2) Cyclin D1 activity is modulated by several inhibitors such as p21 which negatively regulate cell cycle progression by interacting with cyclin dependent kinases (cdks). […] To further study the role of compound 8c in cell cycle, we determined the expression of p21, p53 and the levels of cleaved caspase 3 in the prostate cells. P53 was only determined in LNCaP cells since PC-3 cells are p53-negative[40].
(§3) Cells were lysed in Lysis buffer (50 mM Tris pH 7.4, 0.8 M NaCl, 5 mM MgCl2, 0.1% Triton X-100) containing Protease Inhibitor and Phosphatase inhibitor Cocktails (Roche, Basel, Switzerland). Protein concentrations were measured by BioRad™ protein assay kit (Richmond, CA, USA). […] Films were analyzed by densitometry. […]

[2] = test system: cleaved Caspase 3 (17 kDa fragment); assay: Cleaved Caspase 3 level by Western blot in prostate cells; format: cell-based, human
Method: as §1, §2, §3

`O=C1Nc2ccccc2C1(F)Cc1ccc(-c2ccccc2)o1` (stereo not drawn) [Compound 8c, 3-fluoro-3-((5-phenylfuran-2-yl)methyl)indolin-2-one] was tested, and the “cytotoxic effect by cell counting at different times” value [1] was “time-dependent strong cytotoxic effect”, the “total and phosphorylated p53” value (p53) was “increase in the total and phosphorylated forms of p53” and the “cleaved caspase 3 (17 kDa fragment)” value [2] was “increase in cleaved caspase 3”.
